Data taken from patent US4128541A, “Pentapeptide with morphine- like activity” (American Home Products Corporation, priority 1976, dated 1978).
Ends that are not written are not given here.

Tests used:
guinea pig ileum [1] = conditions: literature, Hughes et al.; cited from earlier work
rats [2] = experiment: rat-tail flick method of D'Amour and Smith (analgesia); format: in vivo; conditions: for Mean % Change ± SEM (latency, drug minus baseline) / Mean Latency ± SEM, Drug: injected into the lateral ventricle in Ringer's solution, 100 μg (morphine sulfate 10 μg)
Procedure: In this test method, which is a standard test for analgesia, a light beam is focused on the tip of the rat's tail, and the pain threshold of the animal is measured by the latency of the rat to remove his tail from the noxious heat source. When tested by the rat-tail flick method by intracerebroventricular injection, according to the procedure of Belluzzi et al., Nature, 260, 625 (1976), the pentapeptide H-Tyr-Gly-Gly-Phe-Ser-OHproduced the effects set forth in Table I.
*All drugs were dissolved in […] of Ringer's solution and injected into
the lateral ventricle through permanently-indwelling cannulae.
*Subcutaneous in saline solution.

rats [3] = conditions: injection in the brain ventricle in rats; fully reversible by naloxone; Beluzzi et al.; cited from earlier work
mouse vas deferens = conditions: literature, Hughes et al.; cited from earlier work
[4] = test system: opiate receptor (3H-naloxone binding) in brain homogenates; conditions: literature; cited from earlier work
rats [5] = experiment: rat-tail flick method of D'Amour and Smith (analgesia); format: in vivo; conditions: intravenous (i.v.) injection, 5 mg/kg
guinea pig ileum [6] = experiment: electrically-induced contraction of guinea pig ileum; conditions: effect blocked by naloxone
Description: Enkephalin, a natural opiate receptor agonist in brain, has been identified [see Hughes et al., Nature, 256, 577(1975)] as a mixture of two pentapeptides: H-Tyr-Gly-Gly-Phe-Met-OH (methionine-enkephalin) and H-Tyr-Gly-Gly-Phe-Leu-OH (leucine-enkephalin).

opiate receptors = experiment: binding to opiate receptors in vitro; conditions: effect blocked by naloxone
[7] = rat-tail flick, 10 mg/kg subcutaneous in saline solution

Compound	block of electrically evoked contractions of guinea pig ileum (in words) (guinea pig ileum [1])	Mean % Change ± SEM (latency, drug minus baseline) (rats [2]; rat-tail flick) [%]	Mean Latency ± SEM, Drug (rats [2]; rat-tail flick)	analgesia (in words) (rats [3])	block of electrically evoked contractions of mouse vas deferens (in words) (mouse vas deferens)	inhibition of stereospecific receptor binding of 3H-naloxone (in words) [4]	analgesic activity (in words) (rats [5])	pain threshold (in words) (rats [2]; injection into the lateral brain ventricle, significant difference versus vehicle)	Mean % Change ± SEM (latency) (rats [2]; [7]) [%]	Mean Latency ± SEM, Pentapeptide (rats [2]; [7])	analgesic effect (in words) (rats [2]; subcutaneous (s.c.) injection, 10 mg/kg in saline)	block of electrically-induced contraction of guinea pig ileum (in words) (guinea pig ileum [6])	binding to opiate receptors in vitro (in words) (opiate receptors)
CSCC[C@H](NC(=O)[C@H](Cc1ccccc1)NC(=O)CNC(=O)CNC(=O)[C@@H](N)Cc1ccc(O)cc1)C(=O)O [Methionine-Enkephalin, H-Tyr-Gly-Gly-Phe-Met-OH]	mimic the ability of morphine to block	37.2	5.19	profound analgesia	mimic the ability of morphine to block	inhibit	–	–	–	–	–	–	–
YGGFS [H-Tyr-Gly-Gly-Phe-Ser-OH, L-Tyrosyl-Glycyl-Glycyl-L-Phenylalanyl-L-Serine]	–	39.25	5.77	–	–	–	no analgesic activity	increase in pain threshold	26.16 ± 14.36	5.15 ± 0.60	weak analgesic effect	blocks	weak binding
CN1CC[C@]23c4c5ccc(O)c4O[C@H]2[C@@H](O)C=C[C@H]3[C@H]1C5.O=S(=O)(O)O [Morphine Sulfate]	–	65.4	6.59	–	–	–	–	–	–	–	–	–	–
H-Tyr-Gly-Gly-Phe-Leu-OH [leucine-enkephalin]	mimic the ability of morphine to block	–	–	profound analgesia	mimic the ability of morphine to block	inhibit	–	–	–	–	–	–	–
